Like-named read-outs stand apart in the source and are kept apart here.
Tests used:
IGROV1 = assay: NCI-60 cytotoxicity screen; format: cell-based
U251 = assay: JFCR-39 cytotoxicity screen; format: cell-based
ACHN = assay: NCI-60 cytotoxicity screen; format: cell-based
[1] = system: JFCR 39 human cancer cell lines; assay: JFCR-39 screen, means, ranges and selectivity over panels; format: cell-based; conditions: for GI50: Homo sapiens
Description: (§1) Both NSC745885 and NSC757963 satisfied the pre-determined threshold inhibition criteria of the NCI-60 One-Dose Screening, so they were tested against the panels of 60 cancer cell lines of NCI (NCI-60) and 39 cancer cell lines of JFCR (JFCR-39), each cell line was tested at five small doses of our compounds. Results are expressed as the 50% growth inhibition concentration (GI50), the 50% lethal concentration (LC50) and the total growth inhibition (TGI), compared to the values of untreated control cells.
(§2) To characterize the selectivity of NSC745885 and NSC757963 further among the different types of cancer, we determined their selectivity ratios towards each cell line subpanel used in the cytotoxicity experiments. […] The promising activity of this compound is evident from the small mean GI50 values. […] The strongest activity was towards the leukemia subpanel and the least one was towards the colon cancer subpanel. […] The strongest activity was towards the melanoma subpanel and the least one was towards the colon cancer subpanel.
(§3) All cell lines were published before.

[2] = system: NCI 60 human cancer cell lines; assay: NCI-60 screen, means, ranges and selectivity over panels; format: cell-based; conditions: for GI50: Homo sapiens
Description: as §1, §2, §3

DMS114 = assay: JFCR-39 cytotoxicity screen; format: cell-based
HCC2998 = assay: JFCR-39 cytotoxicity screen; format: cell-based
NCI-H226 = assay: JFCR-39 cytotoxicity screen; format: cell-based
HOP-92 = assay: NCI-60 cytotoxicity screen; format: cell-based
COLO 205 = assay: NCI-60 cytotoxicity screen; format: cell-based
OVCAR-4 = assay: JFCR-39 cytotoxicity screen; format: cell-based
HL-60(TB) = assay: NCI-60 cytotoxicity screen; format: cell-based
MDA-MB-435 = assay: NCI-60 cytotoxicity screen; format: cell-based
PC-3 = assay: NCI-60 cytotoxicity screen; format: cell-based
MOLT-4 = assay: NCI-60 cytotoxicity screen; format: cell-based
ST-4 = assay: JFCR-39 cytotoxicity screen; format: cell-based
[3] = system: NF-κB p65 subunit translocation in OVCAR-3 cells; assay: NF-κB inhibition by immunocytochemical fluorescent staining; format: cell-based, human; conditions: 5 μM
Description: Inhibition of NF-κB was detected according to Ataie-Kachoie et al.. Briefly, each group of tested cells were seeded on coverslips treated with HCl and ethanol, and autoclaved prior to use. Immunostaining of the p65 subunit of NF-κB was done by permeabilizing the cells with Triton […], then by treating the cells with anti-NF-κB p65 rabbit monoclonal primary antibody [E379] Abcam # ab32536, followed by Alexa Fluor® 488 Donkey anti-rabbit IgG secondary antibody Biolegend # 406416. Nuclei of cells were stained with 4',6-diamidino-2-phenylindole (DAPI). Images were acquired using fluorescence microscope. Tested cells were divided into five groups which are no treatment control, no primary antibody control, PDTC (50 μM) treated control, NSC745885 (5 μM) and NSC757963 (5 μM) treated controls.

[4] = Homo sapiens, Fig 7, read-out: mean log10 of the GI50 values (converted)
[5] = Homo sapiens, five-dose, read-out: GI50
[6] = Homo sapiens, five-dose, read-out: LC50 (the source's name)
[7] = Homo sapiens, read-out: LC50 (the source's name)

SMILES: O=C1c2ccccc2C(=O)c2c1cc(Cl)c1nsnc21 [NSC757963]
- GI50 (IGROV1; Homo sapiens, IGROV-1, Fig 7, read-out: mean log10 of the GI50 values (converted)): 2.51 µM
- GI50 (IGROV1; Homo sapiens, IGROV-1, five-dose, read-out: GI50): 3.3 µM
- CC50 (IGROV1; Homo sapiens, IGROV-1, five-dose, read-out: LC50 (the source's name)): 45.7 µM
- TGI (IGROV1; five-dose): 15.6 µM
- TGI (U251): 3.9 µM
- GI50 (U251; Homo sapiens, U-251): 1.9 µM
- CC50 (U251; Homo sapiens, U-251, read-out: LC50 (the source's name)): 8.1 µM
- GI50 (ACHN; [4]): 2 µM
- GI50 (ACHN; [5]): 2 µM
- CC50 (ACHN; [6]): 7.74 µM
- TGI (ACHN; five-dose): 3.93 µM
- selectivity ratios of the JFCR subpanels (for NSC745885 except melanoma) [1]: less than 3
- GI50 ([1]; JFCR Breast Cancer, read-out: Mean GI50 of subpanel): 1.72 µM
- GI50 ([1]; JFCR CNS Cancer, read-out: Mean GI50 of subpanel): 2 µM
- GI50 ([1]; JFCR Colon Cancer, read-out: Mean GI50 of subpanel): 5.94 µM
- GI50 ([1]; JFCR Lung Cancer, read-out: Mean GI50 of subpanel): 5.86 µM
- GI50 ([1]; JFCR Melanoma, read-out: Mean GI50 of subpanel): 1.9 µM
- GI50 ([1]; JFCR Ovarian Cancer, read-out: Mean GI50 of subpanel): 2.08 µM
- GI50 ([1]; JFCR Prostate Cancer, read-out: Mean GI50 of subpanel): 2.05 µM
- GI50 ([1]; JFCR Renal Cancer, read-out: Mean GI50 of subpanel): 1.75 µM
- GI50 ([1]; JFCR Stomach Cancer, read-out: Mean GI50 of subpanel): 1.97 µM
- GI50 ([1]; all JFCR subpanels, read-out: mean GI50 values of the JFCR subpanels, range): 1.72 to 5.9 µM
- GI50 ([1]; equivalent to MG-MID, read-out: Mean GI50 of all JFCR-39 cell line panels): 3.15 µM
- GI50 ([1]; five-dose, read-out: JFCR-39 GI50 values, range over cell lines): 1 to 21 µM
- Selectivity ratio ([1]; JFCR Breast Cancer): 1.83
- Selectivity ratio ([1]; JFCR CNS Cancer): 1.58
- Selectivity ratio ([1]; JFCR Colon Cancer): 0.53
- Selectivity ratio ([1]; JFCR Lung Cancer): 0.54
- Selectivity ratio ([1]; JFCR Melanoma): 1.66
- Selectivity ratio ([1]; JFCR Ovarian Cancer): 1.52
- Selectivity ratio ([1]; JFCR Prostate Cancer): 1.54
- Selectivity ratio ([1]; JFCR Renal Cancer): 1.8
- Selectivity ratio ([1]; JFCR Stomach Cancer): 1.6
- selectivity ratios of the NCI subpanels other than leukemia [2]: less than 3
- GI50 ([2]; Fig 7, read-out: MG-MID of mean log10 GI50 (converted)): 4.47 µM
- GI50 ([2]; NCI Breast Cancer, read-out: Mean GI50 of subpanel): 5.11 µM
- GI50 ([2]; NCI CNS Cancer, read-out: Mean GI50 of subpanel): 7.71 µM
- GI50 ([2]; NCI Colon Cancer, read-out: Mean GI50 of subpanel): 11.4 µM
- GI50 ([2]; NCI Leukemia, read-out: Mean GI50 of subpanel): 1.4 µM
- GI50 ([2]; NCI Melanoma, read-out: Mean GI50 of subpanel): 8.44 µM
- GI50 ([2]; NCI Non-Small Cell Lung Cancer, read-out: Mean GI50 of subpanel): 20.7 µM
- GI50 ([2]; NCI Ovarian Cancer, read-out: Mean GI50 of subpanel): 6.77 µM
- GI50 ([2]; NCI Prostate Cancer, read-out: Mean GI50 of subpanel): 8.53 µM
- GI50 ([2]; NCI Renal Cancer, read-out: Mean GI50 of subpanel): 18.5 µM
- GI50 ([2]; all NCI subpanels, read-out: mean GI50 values of the NCI 60 subpanels, range): 1.4 to 20.7 µM
- GI50 ([2]; equivalent to MID, read-out: Mean GI50 of all NCI-60 cell line panels): 10.9 µM
- GI50 ([2]; five-dose, read-out: NCI-60 GI50 values, range over cell lines): 0.33 to 72.8 µM
- Selectivity ratio ([2]; NCI Breast Cancer): 2.14
- Selectivity ratio ([2]; NCI CNS Cancer): 1.41
- Selectivity ratio ([2]; NCI Colon Cancer): 0.96
- Selectivity ratio ([2]; NCI Leukemia): 7.79
- Selectivity ratio ([2]; NCI Melanoma): 1.29
- Selectivity ratio ([2]; NCI Non-Small Cell Lung Cancer): 0.53
- Selectivity ratio ([2]; NCI Ovarian Cancer): 1.61
- Selectivity ratio ([2]; NCI Prostate Cancer): 1.28
- Selectivity ratio ([2]; NCI Renal Cancer): 0.59
- TGI (DMS114): 2.5 µM
- GI50 (DMS114; Homo sapiens, DMS-114): 1 µM
- CC50 (DMS114; Homo sapiens, DMS-114, read-out: LC50 (the source's name)): 6.1 µM
- TGI (HCC2998): 3.5 µM
- GI50 (HCC2998; Homo sapiens, HCC 2998): 1.9 µM
- CC50 (HCC2998; Homo sapiens, HCC 2998, read-out: LC50 (the source's name)): 6.4 µM
- TGI (NCI-H226): 17.0 µM
- GI50 (NCI-H226; Homo sapiens): 4.2 µM
- CC50 (NCI-H226; [7]): 51 µM
- GI50 (HOP-92; [4]): 1.45 µM
- GI50 (HOP-92; [5]): 1.43 µM
- CC50 (HOP-92; [6]): 7.84 µM
- TGI (HOP-92; five-dose): 3.34 µM
- GI50 (COLO 205; Homo sapiens, COLO205, Fig 7, read-out: mean log10 of the GI50 values (converted)): 14.1 µM
- GI50 (COLO 205; [5]): 16.9 µM
- CC50 (COLO 205; [6]): 57.9 µM
- TGI (COLO 205; five-dose): 31.2 µM
- TGI (OVCAR-4): 3.0 µM
- GI50 (OVCAR-4; Homo sapiens): 1.6 µM
- CC50 (OVCAR-4; [7]): 5.6 µM
- GI50 (HL-60(TB); [4]): 1.05 µM
- GI50 (HL-60(TB); [5]): 0.42 µM
- CC50 (HL-60(TB); [6]): > 100 µM
- TGI (HL-60(TB); five-dose): 2.22 µM
- GI50 (MDA-MB-435; [4]): 1.95 µM
- GI50 (MDA-MB-435; [5]): 1.99 µM
- CC50 (MDA-MB-435; [6]): 7.49 µM
- TGI (MDA-MB-435; five-dose): 3.86 µM
- GI50 (PC-3; [4]): 2.57 µM
- GI50 (PC-3; [5]): 2.85 µM
- CC50 (PC-3; [6]): > 100 µM
- TGI (PC-3; five-dose): 30.2 µM
- GI50 (MOLT-4; [4]): 0.437 µM
- GI50 (MOLT-4; [5]): 0.46 µM
- CC50 (MOLT-4; [6]): > 100 µM
- TGI (MOLT-4; five-dose): 26.7 µM
- TGI (ST-4): 3.9 µM
- GI50 (ST-4; Homo sapiens): 2 µM
- CC50 (ST-4; [7]): 7.4 µM
- nuclear translocation of the NF-κB p65 subunit [3]: significantly capable of preventing the nuclear translocation of the NF-κB p65 subunit

Reference: PMC4839570, “Novel Anthra[1,2-c][1,2,5]Thiadiazole-6,11-Diones as Promising Anticancer Lead Compounds: Biological Evaluation, Characterization & Molecular Targets Determination” (PLoS ONE, 2016)
